Measured values reported in patent US20260250312A1, “ANTIBACTERIAL COMPOUNDS ELIMINATING DORMANT BACTERIAL CELLS” (UNIVERSITÉ D'AIX-MARSEILLE, priority 2022, published 2026).
Several values for one entry are separate records, joined by “and”; a condition that tells them apart may be missing. Equal entries are not always repeated.

Legend:
[1] = tested on: Staphylococcus aureus (ATCC25923); experiment: Microdilution MIC assay (CLSI-based), S. aureus; type: cell-based; conditions: Staphylococcus aureus, ATCC25923, 20 h, 20 hours incubation at 35-37° C., MHB; read-out: Minimum inhibitory concentration S. aureus ATCC25923
Procedure: (§1) The antibacterial activity of compounds was measured using a standard microdilution assay based on the Clinical and Laboratory Standards Institute (CLSI) guidelines. This method was slightly modified. Indeed, assay volumes were increased to 200 μL to improve reproducibility. The chemical compounds to be tested were in the form of salts for biological testing.
(§2) Bacteria tested: Antibacterial activities of the compounds were tested on Staphylococcus aureus (ATCC25923), Enterococcus faecalis (ATCC29212), Escherichia coli ([…]) and Pseudomonas aeruginosa (ATCC27853).
(§3) Preparation of the Preculture: Mueller Hinton Agar plates were inoculated with frozen biological strain in order to obtain separate colonies and the plates were incubated during 24 h at 35-37° C. 3 colonies of similar aspect were picked out, resuspended in 5 mL of fresh Mueller Hinton broth 1× (MHB) and incubated with shaking (160 rpm) at 35-37° C. overnight.
(§4) 0.1 mL of bacteria in exponential phase were suspended in 9.9 mL of MHB (1:100 dilution). 0.1 mL of the 1:100 dilution were dispensed into the wells of microplates containing 0.1 ml of serial compounds dilutions to yield ca. 5×10^5 CFU/mL. In parallel, the stocks solutions of chemical compounds were first diluted in appropriate solvent to a final concentration of 5 mg/mL. 8 μL were dispended into the first wells of the microplates containing 0.1 ml of sterile broth and a 0.5 cascade dilution was performed in MHB from 0.2 mg/mL. One control was made for each strain tested. […] Tests were performed in triplicate.
(§5) Reading of the Results: After incubation, the filter was replaced with a transparent film, and an optical density reading was then taken in an iEMS plate spectrophotometer at 620 nm. Calculation of the minimum inhibitory concentration (MIC) was performed.

[2] = tested on: Enterococcus faecalis (ATCC29212); experiment: Microdilution MIC assay (CLSI-based), E. faecalis; type: cell-based; conditions: Enterococcus faecalis, ATCC29212, 20 h, 20 hours incubation at 35-37° C., MHB; read-out: Minimum inhibitory concentration E. faecalis ATCC29212
Procedure: as §1, §2, §3, §4, §5

[3] = tested on: Escherichia coli (ATCC28922); experiment: Microdilution MIC assay (CLSI-based), E. coli; type: cell-based; conditions: Escherichia coli, ATCC28922, 20 h, 20 hours incubation at 35-37° C., MHB; read-out: Minimum inhibitory concentration E. coli ATCC28922
Procedure: as §1, §2, §3, §4, §5

[4] = tested on: Pseudomonas aeruginosa (ATCC27853); experiment: Microdilution MIC assay (CLSI-based), P. aeruginosa; type: cell-based; conditions: Pseudomonas aeruginosa, ATCC27853, 20 h, 20 hours incubation at 35-37° C., MHB; read-out: Minimum inhibitory concentration P. aeruginosa ATCC27853
Procedure: as §1, §2, §3, §4, §5

CHO-K1 cells = experiment: WST1 cytotoxicity test; type: cell-based, Chinese hamster; conditions: Cricetulus griseus, CHO-K1, 24 h, WST1, 24 hours at 37° C.; read-out: IC50 CHO
From the text: Cytotoxicity: The test WST1 was used to measure the cytotoxic activity of the compounds of the invention. The test WST1 is a colorimetric test allowing to measure the viability and the degree of cell proliferation. It is based on cleavage of the colorless tetrazolium salts WST-1 (4—[3-(4-iodophenyl)-2-(4-nitrophenyl)-2H-5-tetrazolio]-1,3-benzene disulfonate) with mitochondrial dehydrogenases to the yellow-colored formazan derivative, which may be quantified by spectrophotometry at 420-480 nm. The WST1 test was performed on Chinese hamster ovary (CHO) cells. The CHO-K1 cells (ATCC, USA) were kept in culture in McCoy's 5A medium supplemented with 10% fetal calf serum, 2 mM of L-glutamine and a mixture of penicillin-streptomycin (100 U/ml: 10 μg/mL). The culture was incubated at 37° C. under an atmosphere enriched in CO2 (5%), and subcultured every two days. The cells were transferred into 96-well plates (25,000 cells/mL) in whole McCoy's 5A medium, and maintained for 24 hours at 37° C. under a humid atmosphere enriched in CO2 (5%). Increasing concentrations of tested compounds were added to the wells, each compound was tested in replicates and 8 growth controls containing the cells in the medium alone were included in each series of tests. After 24 hours at 37° C. (5% CO2), the culture medium was removed, the cells were rinsed in phosphate buffer (PBS) and 50 μL of PBS containing 10% of reagent WST1 were added to each well. After 20 minutes of incubation at 37° C., the results were read by spectrophotometry at 450 nm. The results are expressed in dose-response relationships, modeled by nonlinear regression analysis using the TableCurve software.
Cytotoxicity: The same WST1 test as described in Example 2 above was used.

Row | SMILES | MIC [1] | MIC [2] | MIC [3] | MIC [4] | IC50 (CHO-K1 cells)
1 | COC(=O)[C@H](NC(=O)CC[C@@H](C)[C@H]1CCC2C3C(CC[C@@]21C)[C@@]1(C)CC[C@H](NCCNCCNCCN)C[C@H]1C[C@H]3O)C(C)C (stereo partly drawn) [Compound S012, methyl ((4R)-4-((3S,5S,7R,10S,13R,17R)-3-((2-((2-((2-aminoethyl)amino)ethyl)amino)ethyl)amino)-7-hydroxy-10,13-dimethylhexadecahydro-1H-cyclopenta[a]phenanthren-17-yl)pentanoyl)-D-valinate] | 50 µM and 32 µg/mL | 25 µM and 16 µg/mL | 100 µM and 64 µg/mL | 100 µM and 64 µg/mL | 101 µM and 64.2 µg/mL
2 | COC(=O)[C@H](Cc1ccccc1)NC(=O)CC[C@@H](C)[C@H]1CCC2C3C(CC[C@@]21C)[C@@]1(C)CC[C@H](NCCN)C[C@H]1C[C@H]3O (stereo partly drawn) [Compound S015, methyl ((4R)-4-((3S,5S,7R,10S,13R,17R)-3-((2-aminoethyl)amino)-7-hydroxy-10,13-dimethylhexadecahydro-1H-cyclopenta[a]phenanthren-17-yl)pentanoyl)-L-phenylalaninate] | 12.5 µM and 8 µg/mL | 12.5 µM and 8 µg/mL | 12.5 µM and 8 µg/mL | 50 µM and 32 µg/mL | > 250 µM and > 149 µg/mL
3 | COC(=O)[C@H](Cc1ccccc1)NC(=O)CC[C@@H](C)[C@H]1CCC2C3C(CC[C@@]21C)[C@@]1(C)CC[C@H](NCCCN)C[C@H]1C[C@H]3O (stereo partly drawn) [Compound S016, methyl ((4R)-4-((3S,5S,7R,10S,13R,17R)-3-((3-aminopropyl)amino)-7-hydroxy-10,13-dimethylhexadecahydro-1H-cyclopenta[a]phenanthren-17-yl)pentanoyl)-L-phenylalaninate] | 12.5 µM and 8 µg/mL | 25 µM and 16 µg/mL | 25 µM and 16 µg/mL | 50 µM and 32 µg/mL | 66 µM and 40.2 µg/mL
4 | COC(=O)[C@H](NC(=O)CC[C@@H](C)[C@H]1CCC2C3C(CC[C@@]21C)[C@@]1(C)CC[C@H](NCCCN)C[C@H]1C[C@H]3O)C(C)C (stereo partly drawn) [Compound S018, methyl ((4R)-4-((3S,5S,7R,10S,13R,17R)-3-((3-aminopropyl)amino)-7-hydroxy-10,13-dimethylhexadecahydro-1H-cyclopenta[a]phenanthren-17-yl)pentanoyl)-D-valinate] | 50 µM and 32 µg/mL | 100 µM and 64 µg/mL | 200 µM and 128 µg/mL | 200 µM and 128 µg/mL | 10.9 µM and 6.1 µg/mL
5 | COC(=O)[C@H](NC(=O)CC[C@@H](C)[C@H]1CCC2C3C(CC[C@@]21C)[C@@]1(C)CC[C@H](NCCNCCN)C[C@H]1C[C@H]3O)C(C)C (stereo partly drawn) [Compound S020, methyl ((4R)-4-((3S,5S,7R,10S,13R,17R)-3-((2-((2-aminoethyl)amino)ethyl)amino)-7-hydroxy-10,13-dimethylhexadecahydro-1H-cyclopenta[a]phenanthren-17-yl)pentanoyl)-D-valinate] | 100 µM and 64 µg/mL | > 200 µM and > 128 µg/mL | 100 µM and 64 µg/mL | > 200 µM and > 128 µg/mL | 17.2 µM and 10.2 µg/mL
6 | COC(=O)[C@@H](Cc1ccccc1)NC(=O)CC[C@@H](C)[C@H]1CCC2C3C(CC[C@@]21C)[C@@]1(C)CC[C@H](NCCCNCCCNCCCN)C[C@H]1C[C@H]3O (stereo partly drawn) [Compound S022, methyl ((4R)-4-((3S,5S,7R,10S,13R,17R)-3-((3-((3-((3-aminopropyl)amino)propyl)amino)propyl)amino)-7-hydroxy-10,13-dimethylhexadecahydro-1H-cyclopenta[a]phenanthren-17-yl)pentanoyl)-D-phenylalaninate] | 12.5 µM and 8 µg/mL | 25 µM and 16 µg/mL | 12.5 µM and 8 µg/mL | 12.5 µM and 8 µg/mL | 17.1 µM and 12.4 µg/mL
7 | COC(=O)[C@H](NC(=O)CC[C@@H](C)[C@H]1CCC2C3C(CC[C@@]21C)[C@@]1(C)CC[C@H](NCCCCCCN)C[C@H]1C[C@H]3O)C(C)C (stereo partly drawn) [Compound S023, methyl ((4R)-4-((3S,5S,7R,10S,13R,17R)-3-((6-aminohexyl)amino)-7-hydroxy-10,13-dimethylhexadecahydro-1H-cyclopenta[a]phenanthren-17-yl)pentanoyl)-D-valinate] | 50 µM and 32 µg/mL | 100 µM and 64 µg/mL | 100 µM and 64 µg/mL | > 200 µM and > 120 µg/mL | 48.5 µM and 29.3 µg/mL
8 | COC(=O)[C@H](Cc1ccccc1)NC(=O)CC[C@@H](C)[C@H]1CCC2C3C(CC[C@@]21C)[C@@]1(C)CC[C@H](NCCNCCN)C[C@H]1C[C@H]3O (stereo partly drawn) [Compound S024, methyl ((4R)-4-((3S,5S,7R,10S,13R,17R)-3-((2-((2-aminoethyl)amino)ethyl)amino)-7-hydroxy-10,13-dimethylhexadecahydro-1H-cyclopenta[a]phenanthren-17-yl)pentanoyl)-L-phenylalaninate] | 25 µM and 16 µg/mL | 25 µM and 16 µg/mL | 25 µM and 16 µg/mL | 100 µM and 64 µg/mL | 83.7 µM and 53.5 µg/mL
9 | COC(=O)[C@H](Cc1ccccc1)NC(=O)CC[C@@H](C)[C@H]1CCC2C3C(CC[C@@]21C)[C@@]1(C)CC[C@H](NCCCN2CCN(CCCN)CC2)C[C@H]1C[C@H]3O (stereo partly drawn) [Compound S025, methyl ((4R)-4-((3S,5S,7R,10S,13R,17R)-3-((3-(4-(3-aminopropyl)piperazin-1-yl)propyl)amino)-7-hydroxy-10,13-dimethylhexadecahydro-1H-cyclopenta[a]phenanthren-17-yl)pentanoyl)-L-phenylalaninate] | 25 µM and 16 µg/mL | 25 µM and 16 µg/mL | 25 µM and 16 µg/mL | 100 µM and 64 µg/mL | 3.7 µM and 2.72 µg/mL
10 | COC(=O)[C@@H](NC(=O)CC[C@@H](C)[C@H]1CCC2C3C(CC[C@@]21C)[C@@]1(C)CC[C@H](NCCCN(C)CCCN)C[C@H]1C[C@H]3O)C(C)C (stereo partly drawn) [Compound S026, methyl ((4R)-4-((3S,5S,7R,10S,13R,17R)-3-((3-((3-aminopropyl)(methyl)amino)propyl)amino)-7-hydroxy-10,13-dimethylhexadecahydro-1H-cyclopenta[a]phenanthren-17-yl)pentanoyl)-L-valinate] | 25 µM and 16 µg/mL | 50 µM and 32 µg/mL | 25 µM and 16 µg/mL | 200 µM and 126 µg/mL | 11.4 µM and 7.2 µg/mL
